The subject of this experiment is HBV. The experiment in a line: Viral load production from HepAD38 cells, qPCR of the HBV core sequence in supernatant. It is filed as cell-based. The note with it: Hepatitis B virus, HePAD38, 120 h, HepAD38 cells, 5 days, HBV DNA in supernatant by qPCR; Table 1 ranges; read-out: Activity (viral load lowering EC50). The method in brief: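 EC50 and CC50 come from four-parameter logistic fits of supernatant HBV core DNA (TaqMan qPCR, DNA standards, compared with DMSO wells) and of CellTiter-Glo luminescence.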

We go through 26 molecules from patent US20230295096A1, “PYRAZOLE CARBOXAMIDE COMPOUNDS FOR TREATMENT OF HBV” (ASSEMBLY BIOSCIENCES, INC., priority 2020, published 2023).

With `Cn1nc(C2CC3CC(CNS(=O)(=O)C4(C)CC4)CC3C2)c(C(=O)Nc2ccc(F)c(Cl)c2)c1N` (stereo not drawn) [Example 95, 5-Amino-N-(3-chloro-4-fluorophenyl)-1-methyl-3-(5-(((1-methylcyclopropane)-l-sulfonamido)methyl)octahydropentalen-2-yl)-1H-pyrazole-4-carboxamide], the 50% effective concentration (EC50) is under 10 nM.

Turning to `Cn1nc(C2CC3CC(CNS(=O)(=O)C4CCOCC4)CC3C2)c(C(=O)Nc2ccc(F)c(Cl)c2)c1N` (centres unmarked) [Example 96, 5-Amino-N-(3-chloro-4-fluorophenyl)-1-methyl-3-(5-(((tetrahydro-2H-pyran)-4-sulfonamido)methyl)octahydropentalen-2-yl)-1H-pyrazole-4-carboxamide], the concentration for a half-maximal effect (EC50) was under 10 nM.

Consider `Cn1nc(C2CC3CC(CNS(=O)(=O)C4CCS(=O)(=O)CC4)CC3C2)c(C(=O)Nc2ccc(F)c(Cl)c2)c1N` (centres unmarked) [Example 97, 5-Amino-N-(3-chloro-4-fluorophenyl)-3-(5-(((1,1-dioxidotetrahydro-2H-thiopyran)-4-sulfonamido)methyl)octahydropentalen-2-yl)-1-methyl-1H-pyrazole-4-carboxamide], for which the EC50 lay in the range of 10 to 50 nM.

On to `CC(C(F)(F)F)S(=O)(=O)NCC1CC2CC(c3nn(C)c(N)c3C(=O)Nc3ccc(F)c(Cl)c3)CC2C1` (centres unmarked) [Example 98, 5-Amino-N-(3-chloro-4-fluorophenyl)-1-methyl-3-(5-(((2,2,2-trifluoro-1-methylethyl)sulfonamido)methyl)octahydropentalen-2-yl)-1H-pyrazole-4-carboxamide], for which the EC50 was in the range of 10 to 50 nM.

Consider `C[C@@H](NC1CC2CC(c3nn(C)c(N)c3C(=O)Nc3ccc(F)c(Cl)c3)CC2C1)C(F)(F)F` (stereo partly drawn) [Example 99, 5-Amino-N-(3-chloro-4-fluorophenyl)-1-methyl-3-(5-(((R)-1,1,1-trifluoropropan-2-yl)amino)octahydropentalen-2-yl)-1H-pyrazole-4-carboxamide], for which the EC50 lay in the range of 10 to 50 nM.

As for `C[C@H](NC1CC2CC(c3nn(C)c(N)c3C(=O)Nc3ccc(F)c(Cl)c3)CC2C1)C(F)(F)F` (stereo partly drawn) [Example 100, 5-Amino-N-(3-chloro-4-fluorophenyl)-1-methyl-3-(5-(((S)-1,1,1-trifluoropropan-2-yl)amino)octahydropentalen-2-yl)-1H-pyrazole-4-carboxamide], the half-maximal effective concentration (EC50) fell in the range of 10 to 50 nM.

Consider `Cn1nc(C2CC3CC4(CNC(=O)N4)CC3C2)c(C(=O)Nc2ccc(F)c(Cl)c2)c1N` (centres unmarked) [Example 114, 5-Amino-N-(3-chloro-4-fluorophenyl)-1-methyl-3-(2-oxohexahydro-1′H-spiro[imidazolidine-4,2′-pentalen]-5′-yl)-1H-pyrazole-4-carboxamide], for which the EC50 lay within 50 to 500 nM.

In the case of `Cn1nc(C2CC3CC4(CC3C2)NC(=O)NC4=O)c(C(=O)Nc2ccc(F)c(Cl)c2)c1N` (centres unmarked) [Example 116, 5-Amino-N-(3-chloro-4-fluorophenyl)-3-(2,5-dioxohexahydro-1′H-spiro[imidazolidine-4,2′-pentalen]-5′-yl)-1-methyl-1H-pyrazole-4-carboxamide], the half-maximal effective concentration (EC50) was 50 to 500 nM.

For `Cn1nc(C2CC3CN(C4COC4)CC3C2)c(C(=O)Nc2ccc(F)c(Cl)c2)c1N` (centres unmarked) [Example 117, 5-Amino-N-(3-chloro-4-fluorophenyl)-1-methyl-3-(2-(oxetan-3-yl)octahydrocyclopenta[c]pyrrol-5-yl)-1H-pyrazole-4-carboxamide], the EC50 was in the range of 50 to 500 nM.

For `Cn1nc(C2CC3CN(C(=O)OC4CC(F)(F)C4)CC3C2)c(C(=O)Nc2ccc(F)c(Cl)c2)c1N` (centres unmarked) [Example 118, 3,3-Difluorocyclobutyl 5-(5-amino-4-((3-chloro-4-fluorophenyl)carbamoyl)-1-methyl-1H-pyrazol-3-yl)hexahydrocyclopenta[c]pyrrole-2(1H)-carboxylate], the concentration giving a half-maximal response (EC50) was in the range of 50 to 500 nM.

For the molecule `Cn1nc(C2CC3CN(C(=O)OC4COC4)CC3C2)c(C(=O)Nc2ccc(F)c(Cl)c2)c1N` (centres unmarked) [Example 119, Oxetan-3-yl 5-(5-amino-4-((3-chloro-4-fluorophenyl)carbamoyl)-1-methyl-1H-pyrazol-3-yl)hexahydrocyclopenta[c]pyrrole-2(1H)-carboxylate], the EC50 fell in the range of 10 to 50 nM.

Consider `Cn1nc(C2CC3CN(C(=O)c4cnc(C(F)(F)F)s4)CC3C2)c(C(=O)Nc2ccc(F)c(Cl)c2)c1N` (centres unmarked) [Example 120, 5-Amino-N-(3-chloro-4-fluorophenyl)-1-methyl-3-(2-(2-(trifluoromethyl)thiazole-5-carbonyl)octahydrocyclopenta[c]pyrrol-5-yl)-1H-pyrazole-4-carboxamide], for which the EC50 was in the range of 50 to 500 nM.

Turning to `Cn1nc(C2CC3CN(C(=O)c4cccc(F)c4)CC3C2)c(C(=O)Nc2ccc(F)c(Cl)c2)c1N` (centres unmarked) [Example 121, 5-Amino-N-(3-chloro-4-fluorophenyl)-3-(2-(3-fluorobenzoyl)octahydrocyclopenta[c]pyrrol-5-yl)-1-methyl-1H-pyrazole-4-carboxamide], the EC50 was in the range of 10 to 50 nM.

As to `Cn1nc(C2CC3CN(C(=O)Nc4cccc(F)c4)CC3C2)c(C(=O)Nc2ccc(F)c(Cl)c2)c1N` (centres unmarked) [Example 122, 5-(5-Amino-4-((3-chloro-4-fluorophenyl)carbamoyl)-1-methyl-1H-pyrazol-3-yl)-N-(3-fluorophenyl)hexahydrocyclopenta[c]pyrrole-2(1H)-carboxamide], the 50% effective concentration (EC50) is 10 to 50 nM.

Consider `Cn1nc(C2CC3CN(C(=O)NC4CC(F)(F)C4)CC3C2)c(C(=O)Nc2ccc(F)c(Cl)c2)c1N` (centres unmarked) [Example 123, 5-(5-Amino-4-((3-chloro-4-fluorophenyl)carbamoyl)-1-methyl-1H-pyrazol-3-yl)-N-(3,3-difluorocyclobutyl)hexahydrocyclopenta[c]-pyrrole-2(1H)-carboxamide], for which the EC50 fell in the range of 50 to 500 nM.

Regarding `Cn1nc(C2CC3CN(c4c(F)cncc4F)CC3C2)c(C(=O)Nc2ccc(F)c(Cl)c2)c1N` (centres unmarked) [Example 124, 5-Amino-N-(3-chloro-4-fluorophenyl)-3-(2-(3,5-difluoropyridin-4-yl)octahydrocyclopenta[c]pyrrol-5-yl)-1-methyl-1H-pyrazole-4-carboxamide], the 50% effective concentration (EC50) fell in the range of 10 to 50 nM.

`Cn1nc(C2CC3CN(c4ncc(F)cn4)CC3C2)c(C(=O)Nc2ccc(F)c(Cl)c2)c1N` (centres unmarked) [Example 125, 5-Amino-N-(3-chloro-4-fluorophenyl)-3-(2-(5-fluoropyrimidin-2-yl)octahydrocyclopenta[c]pyrrol-5-yl)-1-methyl-1H-pyrazole-4-carboxamide]: the concentration giving a half-maximal response (EC50) was in the range of 10 to 50 nM.

Regarding `Cn1nc(C2CC3CN(C(=O)NCC4CC(F)(F)C4)CC3C2)c(C(=O)Nc2ccc(F)c(Cl)c2)c1N` (centres unmarked) [Example 126, 5-(5-Amino-4-((3-chloro-4-fluorophenyl)carbamoyl)-1-methyl-1H-pyrazol-3-yl)-N-((3,3-difluorocyclobutyl)methyl)-hexahydrocyclopenta[c]pyrrole-2(1H)-carboxamide], the 50% effective concentration (EC50) was in the range of 50 to 500 nM.

Turning to `Cn1nc(C2CC3CN(C(=O)Nc4ncc(C(F)(F)F)s4)CC3C2)c(C(=O)Nc2ccc(F)c(Cl)c2)c1N` (centres unmarked) [Example 127, 5-(5-Amino-4-((3-chloro-4-fluorophenyl)carbamoyl)-1-methyl-1H-pyrazol-3-yl)-N-(5-(trifluoromethyl)thiazol-2-yl)hexahydrocyclopenta[c]pyrrole-2(1H)-carboxamide], the EC50 was 50 to 500 nM.

Take `Cn1nc(C2CC3CN(C(=O)OCc4cccc(F)c4)CC3C2)c(C(=O)Nc2ccc(F)c(Cl)c2)c1N` (centres unmarked) [Example 130, 3-fluorobenzyl 5-(5-amino-4-((3-chloro-4-fluorophenyl)carbamoyl)-1-methyl-1H-pyrazol-3-yl)hexahydrocyclopenta[c]pyrrole-2(1H)-carboxylate]: the EC50 fell in the range of 10 to 50 nM.

Regarding `Cn1nc(C2CC3CN(C(=O)NCc4cccc(F)c4)CC3C2)c(C(=O)Nc2ccc(F)c(Cl)c2)c1N` (centres unmarked) [Example 131, 5-(5-Amino-4-((3-chloro-4-fluorophenyl)carbamoyl)-1-methyl-1H-pyrazol-3-yl)-N-(3-fluorobenzyl)hexahydrocyclopenta[c]pyrrole-2(1H)-carboxamide], the concentration for a half-maximal effect (EC50) lay within 10 to 50 nM.

Consider `Cn1nc(C2CC3CN(c4ccc(C(F)(F)F)nn4)CC3C2)c(C(=O)Nc2ccc(F)c(Cl)c2)c1N` (centres unmarked) [Example 132, 5-Amino-N-(3-chloro-4-fluorophenyl)-1-methyl-3-(2-(6-(trifluoromethyl)pyridazin-3-yl)octahydrocyclopenta[c]pyrrol-5-yl)-1H-pyrazole-4-carboxamide], for which the EC50 was in the range of 10 to 50 nM.

Take `Cn1nc(C2CC3CN(c4ncc(C(F)(F)F)cn4)CC3C2)c(C(=O)Nc2ccc(F)c(Cl)c2)c1N` (centres unmarked) [Example 133, 5-Amino-N-(3-chloro-4-fluorophenyl)-1-methyl-3-(2-(5-(trifluoromethyl)pyrimidin-2-yl)octahydrocyclopenta[c]pyrrol-5-yl)-1H-pyrazole-4-carboxamide]: the half-maximal effective concentration (EC50) was in the range of 50 to 500 nM.

For the molecule `Cn1nc(C2CC3CN(c4ncc(C(F)(F)F)s4)CC3C2)c(C(=O)Nc2ccc(F)c(Cl)c2)c1N` (centres unmarked) [Example 134, 5-Amino-N-(3-chloro-4-fluorophenyl)-1-methyl-3-(2-(5-(trifluoromethyl)thiazol-2-yl)octahydrocyclopenta[c]pyrrol-5-yl)-1H-pyrazole-4-carboxamide], the 50% effective concentration (EC50) lay within 50 to 500 nM.

Turning to `Cn1nc(C2CC3CN(c4cnc(C(F)(F)F)cn4)CC3C2)c(C(=O)Nc2ccc(F)c(Cl)c2)c1N` (centres unmarked) [Example 135, 5-Amino-N-(3-chloro-4-fluorophenyl)-1-methyl-3-(2-(5-(trifluoromethyl)pyrazin-2-yl)octahydrocyclopenta[c]pyrrol-5-yl)-1H-pyrazole-4-carboxamide], the EC50 was in the range of 50 to 500 nM.

For the molecule `Cn1nc(C2CC3CN(c4c(Cl)cncc4Cl)CC3C2)c(C(=O)Nc2ccc(F)c(Cl)c2)c1N` (centres unmarked) [Example 136, 5-Amino-N-(3-chloro-4-fluorophenyl)-3-(2-(3,5-dichloropyridin-4-yl)octahydrocyclopenta[c]pyrrol-5-yl)-1-methyl-1H-pyrazole-4-carboxamide], the EC50 was in the range of 50 to 500 nM.
